Source: patent US11850266B2, “Cardiomyocytes and compositions and methods for producing the same” (President and Fellows of Harvard College, priority 2019, dated 2023)

Tests used:
Assay type in all cases: cell-based, human
[1] = tested on: iPSC-derived cardiomyocytes; assay: Spontaneous beating rate of cardiomyocytes
Method: The BJRiPS cell line was used to generate preliminary data. BJRiPS cells were differentiated into cardiomyocytes according to previously published protocols (6). After the onset of beating (around day 10), cardiomyocytes were treated with vehicle (DMSO) or different concentrations of rapamycin, Torin1, or Torin2 for different time periods. Beating rate was counted manually. Some cells were harvested after 5-7 days of treatment for flow cytometry analysis. Other cells were harvested after 7 days of treatment for qPCR.

[2] = tested on: iPSC-derived cardiomyocytes; assay: Seahorse Mito Stress Test and Glycolysis Stress Test
Method: The Seahorse XFe96 Analyzer (Agilent) was used to assess metabolic activity of differentiated cardiomyocytes. Seahorse XFe96 cell culture microplates were coated with Geltrex (1:100 dilution in DMEM:F12). Cardiomyocytes were differentiated as described above then treated with DMSO or Torin1 (200 nM) starting at approximately two days after onset of beating for one week (˜days 9-16 of differentiation for most batches). After treatment, all cells were changed back into RPMI/B27/insulin media until assay preparation (performed at or before day 35 of differentiation). One day prior to assay, cardiomyocytes were dissociated with 0.1% trypsin-EDTA for 5 minutes then neutralized with RPMI/B27/insulin+10% fetal bovine serum (FBS) and plated at a density of 20,000-30,000 cells per well. Cardiomyocytes were maintained in serum-containing medium overnight to facilitate cell adhesion. One hour prior to the assay, the plates were changed to Seahorse assay media (XF Base Medium supplemented with 25 mM glucose, 1 mM sodium pyruvate, and 1 mM GlutaMAX), then incubated at 37 degrees C. in a CO2-free incubator with Seahorse assay media. […] Following measurement of the oxygen consumption rate (OCR) and extracellular acidification rate (ECAR) in response to serial injections of the stress test kit compounds, final cell density was determined using a CyQUANT assay (Thermo Fisher Scientific) to account for cell loss during washes. Cardiomyocytes not used for the Seahorse assay but at a similar day of differentiation were used to create a standard curve for the CyQUANT assay to quantify absolute cell number in order to account for cell loss during washing/mixing steps. OCR values were normalized to absolute cell number determined by the CyQUANT assay. […] Baseline OCR values were calculated by averaging the first three OCR measurements (0-12 minutes) prior to injection of compounds, maximal OCR values were calculated by subtracting the average non-mitochondrial OCR values (OCR following rotenone/[…]) from the OCR values after the injection with the uncoupler FCCP, and respiratory reserve capacity values were calculated by subtracting baseline OCR values from OCR values after addition of FCCP. For the Glycolysis Stress Test, the glycolysis ECAR was calculated by subtracting the average non-glycolytic acidification values (after 2-DG) from the values after glucose administration, the glycolytic capacity was calculated by subtracting the non-glycolytic acidification ECAR values from ECAR values after addition of oligomycin, and the glycolytic reserve was calculated by subtracting the ECAR values after addition of glucose from the ECAR values after addition of oligomycin, according to the manufacturer's instructions.

[3] = tested on: iPSC-derived cardiomyocytes; assay: Western analysis of protein expression in iPSC-derived cardiomyocytes
Method: To prepare for differentiation, iPSCs were plated at a density between 20,000 to 80,000 cells (depending on the cell line) per well of a 12-well plate at four days prior to onset of differentiation. Cells were differentiated according to the protocol previously described by Lian et al. with some modifications (FIG. 1A) (1). Basal media was changed from StemFlex to RPMI/B27 on day 0 of differentiation. The GSK3 inhibitor, CHIR99021 (6 μM), was added for 48 hours from day 0 to day 2 of differentiation when cells were approximately 70-80% confluent. The Wnt antagonist IWP4 (5 μM) was added from days 2 to 4 of differentiation. Insulin (10 μg/ml) was added to the media starting on day 7 of differentiation, and media was changed every 2-3 days. In general, higher purity (TNNT2+) cardiomyocytes were observed when beating initiated prior to day 10 of differentiation, therefore only batches with onset of beating between days 7-10 of differentiation were included in this study. Beating cardiomyocytes were treated with Torin1 (200 nM, unless otherwise noted) or vehicle (0.02% dimethylsulfoxide (DMSO)) beginning at ˜2 days after onset of beating for 7 days (media changed with fresh Torin1 or DMSO every 2-3 days), unless otherwise noted. After Torin1 treatment, media was switched back to RPMI/B27/insulin and maintained with media change every 2-3 days until endpoint assay. In a few assays, fatty acids were added in the form of chemically defined lipids (Gibco) diluted 1:1000 simultaneous with Torin1 treatment. In some other assays, fetal bovine serum (10% FBS) was added to cells after completion of Torin treatment for 2-4 days.
Cells were lysed with lysis buffer (1% Triton X, 0.35% Na-deoxycholate, 1 mM EDTA, 1% protease inhibitor cocktail (Sigma), 1% phosphatase inhibitor cocktail 2 (Sigma), 1% phosphatase inhibitor cocktail 3 (Sigma), 1 mM phenylmethylsulfonyl fluoride (PMSF)) and total protein was measured with the Pierce BCA Protein Assay Kit. Samples with equal total protein quantities (prepared in Laemmli Sample Buffer (Bio-Rad)) were loaded into a Mini-Protean TGX Precast Gel (Bio-Rad) and electrophoresed for 1 hour at 100 V before transfer to a PVDF membrane using the Trans-Blot Turbo Transfer System (Bio-Rad). The Precision Plus Protein Dual Color Standards molecular weight ladder was used to estimate molecular weight of detected bands (Bio-Rad). Membranes were blocked with 5% milk or bovine serum albumin then incubated with the primary antibody (Table 2) overnight at 4 degrees C. followed by incubation with the horseradish peroxidase-conjugated secondary antibody (Table 2) for 1 hour at room temperature. The Amersham ECL Western Blotting Detection kit was used to detect the protein signal by chemiluminescence, and band densities were quantified using ImageJ software (NIH).

[4] = Torin1 0-200 nM 4 days prior to harvest on day 22, BJRiPS, FIG. 11

For `CCC(=O)N1CCN(c2ccc(-n3c(=O)ccc4cnc5ccc(-c6cnc7ccccc7c6)cc5c43)cc2C(F)(F)F)CC1` [Torin1], the “spontaneous rate of contraction” value ([1]; Example 1, FIG. 4C) was “decrease”, the “beating rate of cardiomyocytes” value ([1]; Torin1 10, 50, 200 nM, Torin2 200 nM, from day 11 for 4-5 days, FIG. 29) was “decreased the beating rate” and the “beating rates at 1 week” value ([1]; dose-dependent, BJRiPS-CMs, FIG. 29) was “significantly decreased beating rates”. The “normalized maximal OCR” value ([2]; Torin1 200 nM 7 days, BJRiPS-CMs, FIG. 3B) was “significant increase”, the “ECAR from non-glycolytic acidification” value ([2]; Torin1 200 nM 7 days, FIG. 12C) was “decrease in ECAR from non-glycolytic acidification” and the “extracellular acidification rate (ECAR)” value ([2]; Torin1 200 nM 7 days, FIGS. 12A-12B) was “trend toward decreased”. For the same molecule, the “maximal OCR” value ([2]; Torin1 7 days, Gibco iPSC-derived cardiomyocytes) was “significantly increases the maximal OCR”, the TNNI1 protein levels ([3]; FIG. 2B, RNA levels not increased) was “increase in TNNI1 protein levels” and the GATA4 protein expression ([3]; FIG. 5A) was “trend toward increased protein expression”. For the same molecule, the “expression of fatty acid receptor CD36” value ([3]; FIG. 13C, BJRiPS-CM) was “trend toward increased expression”, the p21 protein expression ([3]; Torin1 0, 10, 50, 200 nM 7 days, FIG. 5A) was “dose-dependent decrease” and the “p53 protein (total and phosphorylated)” value ([3]; Torin1 0, 10, 50, 200 nM 7 days, Gibco iPS-CM, FIG. 5A) was “dose-dependent increase”. The “TNNI3 protein, late treatment” value [3, 4] was “increases expression of TNNI3”, the “p21 protein, late treatment” value [3, 4] was “decreases expression of p21” and the “TNNTI3 by western analysis” value ([3]; Torin1 10, 50, 200 nM 4 days, BJRiPS, FIGS. 18F-18G) was “significant increase in TNNTI3”. For the same molecule, the “TNNI3 protein (western, densitometry)” value ([3]; Torin1 10, 50, 200 nM, 4 days, days 25-29, BJRiPS, FIG. 31) was “increased protein expression” and the “TNNT2 and TNNI3 protein expression by western analysis” value ([3]; Torin1 7 days, Gibco iPS-CMs, FIG. 2B) was “dose-dependent increase”.
